For one test, the system named is Jurkat. As to the kind of experiment: Antiproliferative activity against human Jurkat cells after 72 hrs by MTT assay. The class given is functional, cell-based. For orientation: Tetrazolium dyes change colour on reduction, which living cells bring about.
For test [1], the system named is MCF7. Briefly: Antiproliferative activity against human MCF7 cells after 72 hrs by MTT assay. The class given is functional, cell-based. Particulars: MCF7, 72 h.
For test [2], the system named is HeLa. Briefly: Antiproliferative activity against human HeLa cells after 72 hrs by MTT assay. The class given is functional, cell-based.
The next test relates to LS180. Briefly: Antiproliferative activity against human LS180 cells after 72 hrs by MTT assay. The class given is functional, cell-based. The note with it: LS180, 72 h.
The target in another test is T1, Cytochrome P450 26A1 (Homo sapiens, UniProt O43174).
T1 sequence (O43174 whole entry): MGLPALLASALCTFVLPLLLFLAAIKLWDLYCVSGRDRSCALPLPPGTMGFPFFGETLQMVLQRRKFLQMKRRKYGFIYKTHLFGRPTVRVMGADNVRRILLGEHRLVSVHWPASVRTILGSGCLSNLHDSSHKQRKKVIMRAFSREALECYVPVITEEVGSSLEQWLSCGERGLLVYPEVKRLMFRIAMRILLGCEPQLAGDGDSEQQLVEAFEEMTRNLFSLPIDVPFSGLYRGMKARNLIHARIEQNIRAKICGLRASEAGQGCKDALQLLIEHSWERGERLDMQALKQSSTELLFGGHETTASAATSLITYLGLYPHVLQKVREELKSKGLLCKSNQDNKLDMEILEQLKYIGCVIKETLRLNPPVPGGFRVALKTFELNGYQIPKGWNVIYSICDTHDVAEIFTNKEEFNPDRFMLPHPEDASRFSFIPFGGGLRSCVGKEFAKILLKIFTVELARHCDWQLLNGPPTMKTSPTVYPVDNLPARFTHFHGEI
Briefly: Inhibition of CYP26A1 (unknown origin).

The subject of test [3] is MCF7. Briefly: Antiproliferative activity against human MCF7 cells. The format is functional, cell-based.
The test system of another test is HCT-116. Briefly: Antiproliferative activity against human HCT116 cells. The class given is functional, cell-based.
Test [4] can be described thus: Antiproliferative activity against human WM3629 cells. The format is functional.
For test [5], the system named is HeLa. Briefly: Antiproliferative activity against human HeLa cells. The format is functional, cell-based.
The test system of the next test is A549. As to the kind of experiment: Antiproliferative activity against human A549 cells. The class given is functional, cell-based.
Test [6] relates to P388. As to the kind of experiment: Antitumor activity against mouse P388 cells implanted in DBA/2J mouse assessed as increase in mouse life span at 5 mg/kg, iv relative to control. The class given is functional.
Another test deals with NUGC-3. Briefly: Antiproliferative activity against human NUGC3 cells after 72 hrs by MTT assay. The note with it: NUGC-3, 72 h. The class given is functional, cell-based.
In test [7] the test system is P388. As to the kind of experiment: Antitumor activity against mouse P388 cells implanted in DBA/2J mouse assessed as increase in mouse life span at 200 mg/kg/day, po for 4 consecutive days relative to control. The format is functional.
A further test has as its system A-431. Briefly: Antitumor activity against human A431 cells xenografted in athymic mouse assessed as tumor growth inhibition at 25 mg/kg relative to control. The format is functional. The note with it: read-out: TGI.

Consider 16 compounds from ChEMBL document CHEMBL4261505, “Imidazoles as potential anticancer agents” (Medchemcomm, 2017).

The term IC50 denotes the midpoint of a concentration-inhibition curve. Read a low IC50 as higher potency. By GI50 is commonly meant the concentration that inhibits growth by half. One may read the ILS as the gain in survival time of treated over control animals, in per cent.

Take `O=C1CCCc2nc3c(c(-c4ncc[nH]4)c21)C(=O)c1ccccc1-3`: the IC16 in the test with Jurkat was 1.7 µM; in the test on MCF7 [1], more than 100 µM; in the test with HeLa [2] it was more than 100 µM; in the test on LS180 it was more than 100 µM. In addition, the IC50 in the test with Jurkat was 70.9 µM; with MCF7 [1] it was more than 100 µM; in the test on HeLa [2], more than 100 µM; in the test with LS180, more than 100 µM.
The compound `COC(=O)C(C)(C)C(c1ccc(Nc2ccc3ccccc3c2)cc1)n1ccnc1` (stereo unspecified) showed an IC50 at Cytochrome P450 26A1 of 0.03 µM.
For the compound `C[S+]([O-])c1nc2cc(Cl)c(Cl)cc2n1C1CCCC1` (stereo unspecified), the IC50 in the test with MCF7 [3] and in the test with HCT-116 was 0.5 µM throughout.
For the compound `CS(=O)(=O)c1nc2cc(Cl)c(Cl)cc2n1C1CCCC1`, the IC50 in the test on MCF7 [3] and with HCT-116 was 0.6 µM each time.
For `CC1CC(=O)C2=C(C1)N(c1ccccc1)C1=C(C(=O)c3ccccc31)C2c1nc(Cl)c(Cl)[nH]1` (stereo unspecified), the IC16 came to 1.7 µM in the test on Jurkat, 13.6 µM with MCF7 [1], 10.7 µM in the test with HeLa [2] and 19.4 µM in the test on LS180. The IC50 was 95.8 µM in the test on Jurkat, 77.1 µM with MCF7 [1], 59 µM in the test on HeLa [2] and more than 100 µM in the test with LS180.
`C[C@H](O)CNc1nccc(-n2ccnc2-c2cccc(NC(=O)c3ccc(Cl)c(C(F)(F)F)c3)c2)n1` returned a GI50 in test [4] of 0.62 µM.
Turning to `Cc1nc2cc(Cl)c(Cl)cc2n1C1CCCC1`, the IC50 was 40 µM in the test with MCF7 [3] and 3 µM in the test with HCT-116.
Consider `CCCCCCCn1c(CCCC)nc(Cl)c1-c1nc2ccccc2[nH]1`, for which, in the test with HeLa [5], the IC50 was 25.3 µM.
For the compound `CNC(=O)c1cc(Oc2ccc(NC(=O)Nc3ccc(Cl)c(C(F)(F)F)c3)cc2)ccn1` [SORAFENIB], growth in test [4] was halved (GI50) at 0.78 µM.
With `COc1ccc(-c2sc3nc(-c4ccc(F)cc4)c(C(=O)c4cccnc4)n3c2-c2ccc(OC)cc2)cc1`, the midpoint of inhibition in the test on A549, the IC50, lay at 0.64 µM.
Regarding `CC[C@]1(O)C[C@@H]2CN(CCc3c([nH]c4ccccc34)[C@@](C(=O)OC)(c3cc4c(cc3OC)N(C)[C@H]3[C@@](O)(C(=O)OC)[C@H](OC(C)=O)[C@]5(CC)C=CCN6CC[C@]43[C@@H]65)C2)C1` [VINBLASTINE], the ILS at 5 mg/kg in the test with P388 [6] is 83%.
Consider `Nc1nc(-c2cccs2)cn1-c1nc(-c2ccccc2)cs1`, for which the midpoint of inhibition in the test with NUGC-3, the IC50, lay at 0.05 µM. Besides, the increase in lifespan (ILS) at 200 mg/kg/day in the test with P388 [7] was 75%.
Consider `CC1CC(=O)C2=C(C1)NC1=C(C(=O)c3ccccc31)C2c1ncc([N+](=O)[O-])n1C` (stereo unspecified), for which the IC16 in the test with Jurkat was 0.7 µM; in the test with MCF7 [1] it was more than 25 µM; in the test on HeLa [2], 9.2 µM; with LS180 it was 12.5 µM. Further, the IC50 in the test on Jurkat, in the test with MCF7 [1], with HeLa [2] and with LS180 was more than 25 µM in each case.
For the compound `COc1ccc(Cc2[nH]c(=N)n(C)c2Cc2ccc(O)cc2)cc1` [NAAMINE A], the inhibition in vivo at 25 mg/kg in the test on A-431 came out at 85%.
`C[C@H](O)CNc1nccc(-n2ccnc2-c2cccc(NC(=O)Nc3ccc(Cl)c(Cl)c3)c2)n1` gave a GI50 in [4] of 0.65 µM.
The compound `CCCCc1nc(Cl)c(-c2nc3ccccc3[nH]2)n1Cc1cccc(C)c1` yielded an IC50 in the test on HeLa [5] of 30.2 µM.
